Assay in all cases: growth of human tumour cells (NCI), 48 h
In test [1] the test system is NCI-H522 lung.
In test [2] the test system is BT-549 breast.
Test [3] deals with MDA-MB-231 breast.
The test system of test [4] is HL-60(TB) leukemia.
The subject of test [5] is SF-295 CNS.
For test [6], the system named is A549 NSCLC.
Test [7] deals with SR leukemia.
In test [8] the test system is KM12 colon.
Test [9] deals with ACHN renal.
In test [10] the test system is RXF 393 renal.

Values joined by “and” are separate entries in the source; they are usually repeats but may differ in a detail not shown here. Identical values can stand only once.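 Method: 48-hour compound exposure of cells in 96-well plates, five concentrations, linear interpolation of endpoints. Here, GI50 denotes the concentration required for 50% inhibition of growth. TGI denotes the concentration required for complete inhibition of growth.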

Take `Cc1cc(C)c2c(=O)cc(-c3ccc(F)cc3)[nH]c2n1`: the TGI in [1] was above 100 µM; in [2], above 100 µM; in [3], above 100 µM; in test [4], 37.4 µM; in test [5], above 100 µM; in test [6] it was above 100 µM. Further, the figures for the TGI in test [7], in [8] and in test [9] were 67.7 µM, 49.9 µM and above 100 µM, respectively. The GI50 in test [4] was 15.5 µM; in test [5], 50.1 µM.

For the compound `CO[C@@H]1[C@H](N(C)C(=O)c2ccccc2)C[C@@H]2O[C@]1(C)n1c3ccccc3c3c4c(c5c6ccccc6n2c5c31)C(=O)NC4=O`, the GI50 in test [2] was 1.21 µM; in test [3], 0.48 µM; in test [4] it was above 100 µM; in test [5], 1.45 µM; in [6], 0.595 µM; in [7] it was 0.504 µM. The GI50 was 0.391 µM in [8] and 0.838 µM in test [9]. The TGI in [2], in test [3], in test [4], in [5], in test [6] and in test [7] was above 100 µM each time. In addition, the TGI in test [8] and in test [9] was above 100 µM in each case.

As for `OC1CCC(COC(c2ccccc2)(c2ccccc2)c2ccccc2)O1` (centres undefined), the TGI in test [1] turned out to be 31.8 µM; in test [2] it was 40.6 µM; in test [3] it was 32.1 µM; in test [4] it was 39.7 µM; in test [5] it was 31.8 µM; in [6] it was 37 µM. Moreover, the TGI in test [7] was above 10 µM; in [8] it was 34.3 µM; in test [9], 31.1 µM.

Consider `COc1cc2c3c(n(CCCNC(C)(C)CO)c(=O)c2cc1OC)-c1cc2c(cc1C3=O)OCO2`, for which the GI50 in test [1] was 0.448 µM; in test [10], 16.2 µM; in test [2] it was 12.9 µM; in test [3], 1.23 µM; in test [4] it was 0.539 µM; in test [5], 0.214 µM. For the same compound, the GI50 was 1.5 µM in test [6], 2.19 µM in [8] and 0.331 µM in test [9]. Moreover, the TGI in [1] was above 21.8 µM; in test [10], above 68 µM; in [2], 39.2 µM; in test [3], 7 µM; in test [4], 4.16 µM; in test [5], 49.1 µM. Further, the TGI was 23.9 µM in test [6], above 100 µM in test [8] and 14.3 µM in test [9].

As for `COC(=O)CC12CC(NC(=O)c3csc([C@@H](C[C@H](C(C)C)N(C)C(=O)[C@@H](NC(=O)[C@H]4CCCCN4C)C(C)C)OC(C)=O)n3)(C1)C2`, the GI50 is 0.00107 µM and 0.00333 µM in test [1]; 0.00575 µM and 0.022 µM in [2]; 0.00661 µM and 0.0152 µM in test [3]; 0.00282 µM and 0.00685 µM in test [4]; 0.00327 µM and 0.00942 µM in [5]; 0.00777 µM and 0.013 µM in test [6]. In addition, the GI50 in test [7] was 0.00187 µM and 0.00333 µM; in test [8], 0.00441 µM and 0.00939 µM; in [9] it was 0.026 µM. Also, the TGI in [1] is 0.00593 µM and 0.0149 µM; in test [2], 0.246 µM and 0.253 µM; in test [3], 0.0958 µM and 0.515 µM; in test [4], 0.0111 µM and 0.0181 µM; in [5], above 33.3 µM; in [6] it was above 33.3 µM. Moreover, the TGI in test [7], in [8] and in test [9] was above 33.3 µM each time.

`CC(=O)NS(=O)(=O)c1ccc(-n2nc(-c3ccccc3)cc2-c2cc(O)ccc2O)cc1`: the GI50 in [1] was 45 µM; in [2], above 100 µM; in test [3] it was 39.2 µM; in [4], 61.8 µM; in test [5] it was above 100 µM; in [6] it was above 100 µM. Besides, the GI50 in [7], in test [8] and in test [9] was above 100 µM throughout. The TGI in [1], in [2], in test [3], in [4], in [5] and in test [6] was above 100 µM throughout. The TGI in test [7], in [8] and in test [9] was above 100 µM each time.

As for `CSc1nc(SC)c2c(C)cn(Cc3ccccc3)c2n1`, the TGI in test [1], in test [2], in [3], in test [4], in test [5] and in test [6] was above 100 µM in each case. The TGI in [7], in test [8] and in [9] was above 100 µM in each case.

For `Nc1n[nH]c2ccc([C@H]3[C@@H]4C5CCC(C5)[C@@H]4c4c(ccc5[nH]ncc45)N3S(=O)(=O)C3CC3)cc12` (some centres undefined), the GI50 was 0.183 µM in test [1]; 0.34 µM in test [2]; 0.322 µM in [3]; 0.12 µM in [4]; 0.136 µM in [5]; 0.237 µM in test [6]. Further, the GI50 in [7] is 0.15 µM; in test [8], 0.199 µM; in test [9], 0.346 µM. Moreover, the TGI in test [1] was 2.56 µM; in test [2], 5.73 µM; in test [3], 12.4 µM; in [4] it was 0.996 µM; in test [5] it was 1.32 µM; in test [6] it was above 25.6 µM. The TGI in [8] came out at 6.32 µM; in [9], 22.5 µM.

With `O=C(O)c1ccc(NCn2nc(-c3ccccc3O)oc2=S)cc1O`, the GI50 in test [1] is above 100 µM; in test [10], above 100 µM; in test [2], above 100 µM; in [3] it was 38.9 µM; in test [4] it was above 100 µM; in test [5], above 100 µM. Moreover, the GI50 is above 100 µM in test [6], above 100 µM in test [8] and 31.6 µM in [9]. The TGI in [1], in test [10], in test [2], in test [3], in [4] and in test [5] was above 100 µM in each case. For the same compound, the TGI in test [6] was above 100 µM; in test [8], above 100 µM; in test [9] it was 99.1 µM.

Source of the values: PubChem BioAssay (NCI).
